Assay results: PubChem BioAssay AID651788 (The Scripps Research Institute Molecular Screening Center, 2012)
Active and inactive are the calls of the source.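 Rule for the calls: active = IC50 for SRC3 coactivator inhibition, the dose giving half inhibition, at or below 10 µM; inactive = IC50 above 10 µM.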

Each compound was assayed against Nuclear receptor coactivator 3 (Homo sapiens) (UniProt Q9Y6Q9) (assay: SRC3 (NCOA3) coactivator inhibitors, late-stage follow-up, cell-based, HEK293, GAL4-SRC3 luciferase, powder samples (AID 651788)). Conditions: HEK293 GAL4-SRC3 luciferase reporter, luminescence.
Sequence of Nuclear receptor coactivator 3 (Homo sapiens) (Q9Y6Q9 whole entry, looked up, the tested form may be a part): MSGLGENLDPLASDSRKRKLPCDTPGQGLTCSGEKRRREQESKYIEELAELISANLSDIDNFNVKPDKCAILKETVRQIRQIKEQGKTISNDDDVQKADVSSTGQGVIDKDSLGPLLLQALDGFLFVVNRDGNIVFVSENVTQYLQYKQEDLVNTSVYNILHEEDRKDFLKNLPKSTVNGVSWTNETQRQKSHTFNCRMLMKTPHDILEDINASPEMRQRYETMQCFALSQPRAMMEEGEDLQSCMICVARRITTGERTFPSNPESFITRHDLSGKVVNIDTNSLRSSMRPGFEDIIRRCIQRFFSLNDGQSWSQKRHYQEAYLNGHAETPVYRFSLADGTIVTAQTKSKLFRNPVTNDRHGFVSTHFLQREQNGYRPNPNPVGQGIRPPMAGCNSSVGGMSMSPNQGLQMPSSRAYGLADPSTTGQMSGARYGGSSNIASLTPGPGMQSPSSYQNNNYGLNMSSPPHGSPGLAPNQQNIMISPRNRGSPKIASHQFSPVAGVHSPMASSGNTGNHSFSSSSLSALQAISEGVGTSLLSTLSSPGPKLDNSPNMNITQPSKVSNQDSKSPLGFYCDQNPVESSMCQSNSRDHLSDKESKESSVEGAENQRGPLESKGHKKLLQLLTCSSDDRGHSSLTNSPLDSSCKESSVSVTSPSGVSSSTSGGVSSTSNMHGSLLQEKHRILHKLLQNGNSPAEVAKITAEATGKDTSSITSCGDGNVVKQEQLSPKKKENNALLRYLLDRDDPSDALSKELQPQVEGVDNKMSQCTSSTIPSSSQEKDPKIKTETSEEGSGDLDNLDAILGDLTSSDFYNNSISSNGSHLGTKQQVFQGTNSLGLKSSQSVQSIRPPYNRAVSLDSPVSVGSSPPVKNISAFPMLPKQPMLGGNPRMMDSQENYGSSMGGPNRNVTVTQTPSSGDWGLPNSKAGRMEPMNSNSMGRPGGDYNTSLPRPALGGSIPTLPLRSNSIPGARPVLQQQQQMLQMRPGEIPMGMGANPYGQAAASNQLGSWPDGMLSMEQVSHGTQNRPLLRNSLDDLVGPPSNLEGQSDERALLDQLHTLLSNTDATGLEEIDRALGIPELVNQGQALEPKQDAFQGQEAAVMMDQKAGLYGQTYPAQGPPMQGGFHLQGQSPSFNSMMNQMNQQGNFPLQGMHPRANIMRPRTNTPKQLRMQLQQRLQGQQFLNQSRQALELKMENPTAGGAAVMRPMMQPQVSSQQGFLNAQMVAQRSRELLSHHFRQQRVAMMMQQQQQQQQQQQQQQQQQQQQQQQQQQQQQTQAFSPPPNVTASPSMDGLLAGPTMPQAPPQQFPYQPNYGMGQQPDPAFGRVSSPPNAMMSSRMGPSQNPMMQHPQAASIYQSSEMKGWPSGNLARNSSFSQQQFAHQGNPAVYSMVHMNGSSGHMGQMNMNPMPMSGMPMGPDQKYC

Compound	IC50
O=C(COC(=O)c1ccc[nH]c1=O)Nc1ccc(N2CCCCC2)cc1	8.32 µM
CN1C(=O)C2(C(C#N)=C(N)N(c3cc(Cl)cc(Cl)c3)C3=C2C(=O)CC(C)(C)C3)c2ccccc21 (stereo not drawn)	4.44 µM
CN1C(=O)C2(C(C#N)=C(N)N(c3cc(Cl)cc(Cl)c3)C3=C2C(=O)CCC3)c2ccccc21 (stereo not drawn)	5.74 µM
CCCNC(=O)c1nnsc1S(=O)(=O)c1ccc(Cl)cc1	3.96 µM
O=C(Nc1ccccc1Oc1ccccc1)c1cc([N+](=O)[O-])ccc1Cl	3.1 µM
CC(C)(C)c1ccc(-c2noc(CCC(=O)Nc3cccnc3)n2)cc1	> 12 µM (inactive)
Cc1ccc(OCC(=O)c2cc(C)n(-c3ccccc3)c2C)c([N+](=O)[O-])n1	inactive
OCCN1CCN(C(=S)c2ccc(-c3ccccc3)cc2)CC1	4.97 µM
